{
  "source": "patent US20180271858A1",
  "about": "“SOLUTION FOR ORAL ADMINISTRATION” (OTSUKA PHARMACEUTICAL CO., LTD., priority 2011, published 2018)",
  "experiment": "solubility in water (statement in the background section)",
  "assay_type": "physicochemical",
  "settings": "compound (I) or a salt thereof",
  "data": [
    {"molecule": "O=c1ccc2ccc(OCCCCN3CCN(c4cccc5sccc45)CC3)cc2[nH]1", "note": "[compound (I), 7-[4-(4-benzo[b]thiophen-4-yl-piperazin-1-yl)butoxy]-1H-quinolin-2-one]", "values": [
      {"measurement": "solubility in water", "value": "hardly soluble in water"}
    ]}
  ]
}
